{"source": "paper PMC7933930", "about": "“Development of a small molecule that corrects misfolding and increases secretion of Z α1‐antitrypsin” (EMBO Molecular Medicine, 2021)", "key": {"[1]": {"target": "Aryl hydrocarbon receptor (Homo sapiens, UniProt P35869)", "sequence (P35869 11-848, species assumed)": "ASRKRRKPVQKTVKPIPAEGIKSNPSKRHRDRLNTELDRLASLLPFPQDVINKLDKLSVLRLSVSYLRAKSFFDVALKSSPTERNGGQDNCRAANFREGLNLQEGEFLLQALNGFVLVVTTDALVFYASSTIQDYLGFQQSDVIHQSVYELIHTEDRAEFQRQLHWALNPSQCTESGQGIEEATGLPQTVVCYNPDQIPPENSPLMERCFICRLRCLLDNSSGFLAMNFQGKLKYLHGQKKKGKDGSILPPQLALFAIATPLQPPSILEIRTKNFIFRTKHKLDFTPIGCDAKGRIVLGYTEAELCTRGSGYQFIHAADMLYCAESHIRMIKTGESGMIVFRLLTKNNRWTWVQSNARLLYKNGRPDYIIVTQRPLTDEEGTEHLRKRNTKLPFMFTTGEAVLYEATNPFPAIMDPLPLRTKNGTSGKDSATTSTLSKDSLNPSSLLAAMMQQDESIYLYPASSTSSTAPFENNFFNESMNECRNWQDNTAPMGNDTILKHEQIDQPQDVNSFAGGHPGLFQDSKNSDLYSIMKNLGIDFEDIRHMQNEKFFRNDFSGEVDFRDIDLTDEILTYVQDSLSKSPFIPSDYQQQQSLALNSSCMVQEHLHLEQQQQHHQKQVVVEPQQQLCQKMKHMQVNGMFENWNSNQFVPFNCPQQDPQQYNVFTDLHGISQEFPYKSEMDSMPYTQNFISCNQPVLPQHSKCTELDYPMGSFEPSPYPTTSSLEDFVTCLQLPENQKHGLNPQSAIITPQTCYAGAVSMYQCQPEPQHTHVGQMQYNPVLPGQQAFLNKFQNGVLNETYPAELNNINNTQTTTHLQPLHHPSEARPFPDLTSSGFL", "assay": "Off‐target panel: Aryl hydrocarbon receptor", "assay_type": "cell-based", "conditions": "Activator, read-out: Mean (PXC50)", "protocol": "(§1) GSK716 selectivity and PK properties were profiled in order to investigate the suitability of GSK716 for progression into in vivo studies and the potential for taking it forward as a clinical candidate for testing in humans. Since GSK716 results in loss of inhibitory activity of α1‐antitrypsin, the effect of the compound was assessed on other closely related serpins. […] Furthermore, there were no off‐target effects in a panel of assays considered predictive of known safety liabilities that precluded further development of GSK716 (Table EV1)."}, "Adrenergic α2C": {"target": "Adrenergic α2C (Homo sapiens, UniProt P18825)", "sequence (P18825 whole entry)": "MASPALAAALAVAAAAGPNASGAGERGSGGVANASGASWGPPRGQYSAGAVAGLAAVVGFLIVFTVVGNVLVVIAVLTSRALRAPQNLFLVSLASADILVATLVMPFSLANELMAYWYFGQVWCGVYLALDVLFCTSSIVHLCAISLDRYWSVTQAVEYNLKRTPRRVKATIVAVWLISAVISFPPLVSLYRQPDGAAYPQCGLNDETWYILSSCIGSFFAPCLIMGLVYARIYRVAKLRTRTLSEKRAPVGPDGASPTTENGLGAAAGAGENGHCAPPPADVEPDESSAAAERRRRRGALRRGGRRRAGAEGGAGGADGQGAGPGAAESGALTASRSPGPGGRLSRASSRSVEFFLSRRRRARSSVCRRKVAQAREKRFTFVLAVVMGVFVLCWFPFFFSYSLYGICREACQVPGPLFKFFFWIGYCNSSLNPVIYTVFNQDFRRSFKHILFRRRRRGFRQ", "assay": "Off‐target panel: Adrenergic α2C", "assay_type": "cell-based", "protocol": "as §1"}, "Muscarinic M1": {"target": "T1, Muscarinic M1 (Homo sapiens, UniProt P11229)", "T1 sequence (P11229 1-460)": "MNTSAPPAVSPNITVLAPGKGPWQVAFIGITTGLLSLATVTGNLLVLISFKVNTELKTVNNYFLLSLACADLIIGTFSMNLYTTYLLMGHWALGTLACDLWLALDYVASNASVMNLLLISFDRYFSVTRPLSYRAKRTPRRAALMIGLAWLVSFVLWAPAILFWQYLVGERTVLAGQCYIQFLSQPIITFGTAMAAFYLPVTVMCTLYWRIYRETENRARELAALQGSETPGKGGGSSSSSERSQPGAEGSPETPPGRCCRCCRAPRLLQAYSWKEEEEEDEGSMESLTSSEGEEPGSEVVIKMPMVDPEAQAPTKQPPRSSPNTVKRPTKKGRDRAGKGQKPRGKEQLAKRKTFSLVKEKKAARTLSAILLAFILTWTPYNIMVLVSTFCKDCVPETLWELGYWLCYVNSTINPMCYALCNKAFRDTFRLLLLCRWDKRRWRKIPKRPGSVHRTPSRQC", "assay": "Off‐target panel: Muscarinic M1", "assay_type": "cell-based", "protocol": "as §1"}, "Vasopressin V1a": {"target": "Vasopressin V1a (Homo sapiens, UniProt P37288)", "sequence (P37288 whole entry)": "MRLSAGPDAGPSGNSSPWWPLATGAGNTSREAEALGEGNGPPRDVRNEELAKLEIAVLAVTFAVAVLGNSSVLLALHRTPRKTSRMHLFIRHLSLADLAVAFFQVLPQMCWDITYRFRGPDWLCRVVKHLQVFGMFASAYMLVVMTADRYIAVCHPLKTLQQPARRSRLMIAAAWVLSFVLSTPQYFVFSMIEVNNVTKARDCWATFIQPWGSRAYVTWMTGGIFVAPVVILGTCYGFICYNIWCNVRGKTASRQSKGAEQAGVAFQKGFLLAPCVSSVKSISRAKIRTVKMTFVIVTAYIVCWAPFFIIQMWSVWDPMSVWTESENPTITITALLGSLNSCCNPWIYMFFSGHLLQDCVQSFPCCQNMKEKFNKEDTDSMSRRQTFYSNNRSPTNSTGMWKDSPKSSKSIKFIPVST", "assay": "Off‐target panel: Vasopressin V1a (DRX)", "assay_type": "cell-based", "conditions": "Antagonist, read-out: Mean (PXC50)", "protocol": "as §1"}, "Acetyl- cholinesterase": {"target": "Acetyl- cholinesterase (Homo sapiens, UniProt P22303)", "sequence (P22303 32-614, species assumed)": "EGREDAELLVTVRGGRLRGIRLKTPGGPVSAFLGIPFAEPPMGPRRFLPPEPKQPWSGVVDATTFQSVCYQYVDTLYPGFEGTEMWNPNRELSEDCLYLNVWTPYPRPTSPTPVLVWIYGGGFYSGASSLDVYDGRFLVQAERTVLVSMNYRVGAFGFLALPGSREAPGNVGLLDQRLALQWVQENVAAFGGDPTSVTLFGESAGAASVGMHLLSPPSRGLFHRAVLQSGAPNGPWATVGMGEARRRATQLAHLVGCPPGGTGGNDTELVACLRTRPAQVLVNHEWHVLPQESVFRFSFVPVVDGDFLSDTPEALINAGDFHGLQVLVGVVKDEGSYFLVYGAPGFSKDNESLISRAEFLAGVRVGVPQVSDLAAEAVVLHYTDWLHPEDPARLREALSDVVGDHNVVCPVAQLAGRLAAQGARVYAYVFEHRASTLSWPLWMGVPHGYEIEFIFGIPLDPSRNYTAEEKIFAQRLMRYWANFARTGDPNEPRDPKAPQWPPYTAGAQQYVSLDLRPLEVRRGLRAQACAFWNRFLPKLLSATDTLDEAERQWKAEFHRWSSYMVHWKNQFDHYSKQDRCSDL", "assay": "Off‐target panel: Acetyl- cholinesterase", "assay_type": "biochemical", "protocol": "as §1"}, "ChromLogD": {"assay": "ChromLogD", "assay_type": "physicochemical", "conditions": "pH 7.4; pH7.4", "protocol": "ChromLogD was measured as previously described (Valkó et al, 1997)."}, "Kv1.5": {"target": "Kv1.5 (Homo sapiens, UniProt P22460)", "sequence (P22460 whole entry)": "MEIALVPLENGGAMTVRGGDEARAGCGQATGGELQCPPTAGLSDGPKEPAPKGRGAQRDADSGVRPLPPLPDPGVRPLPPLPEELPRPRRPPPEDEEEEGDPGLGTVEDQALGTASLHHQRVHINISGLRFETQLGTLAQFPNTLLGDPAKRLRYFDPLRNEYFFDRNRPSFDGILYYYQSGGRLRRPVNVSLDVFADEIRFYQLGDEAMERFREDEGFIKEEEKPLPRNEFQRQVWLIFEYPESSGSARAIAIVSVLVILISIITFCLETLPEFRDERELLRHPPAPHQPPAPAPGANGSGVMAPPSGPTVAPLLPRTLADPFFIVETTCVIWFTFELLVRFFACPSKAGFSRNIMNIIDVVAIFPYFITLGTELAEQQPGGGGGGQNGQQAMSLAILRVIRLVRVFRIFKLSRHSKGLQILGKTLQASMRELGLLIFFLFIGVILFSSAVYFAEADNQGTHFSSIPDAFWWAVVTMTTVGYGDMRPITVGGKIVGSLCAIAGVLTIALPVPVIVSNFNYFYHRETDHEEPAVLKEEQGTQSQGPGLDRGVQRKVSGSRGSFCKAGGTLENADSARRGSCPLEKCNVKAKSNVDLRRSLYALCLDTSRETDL", "assay": "Off‐target panel: Kv1.5", "assay_type": "cell-based", "conditions": "Blocker, read-out: Mean (PXC50)", "protocol": "as §1"}, "[2]": {"target": "T2, Norepinephrine transporter (Homo sapiens, UniProt P23975)", "T2 sequence (P23975 whole entry, species assumed)": "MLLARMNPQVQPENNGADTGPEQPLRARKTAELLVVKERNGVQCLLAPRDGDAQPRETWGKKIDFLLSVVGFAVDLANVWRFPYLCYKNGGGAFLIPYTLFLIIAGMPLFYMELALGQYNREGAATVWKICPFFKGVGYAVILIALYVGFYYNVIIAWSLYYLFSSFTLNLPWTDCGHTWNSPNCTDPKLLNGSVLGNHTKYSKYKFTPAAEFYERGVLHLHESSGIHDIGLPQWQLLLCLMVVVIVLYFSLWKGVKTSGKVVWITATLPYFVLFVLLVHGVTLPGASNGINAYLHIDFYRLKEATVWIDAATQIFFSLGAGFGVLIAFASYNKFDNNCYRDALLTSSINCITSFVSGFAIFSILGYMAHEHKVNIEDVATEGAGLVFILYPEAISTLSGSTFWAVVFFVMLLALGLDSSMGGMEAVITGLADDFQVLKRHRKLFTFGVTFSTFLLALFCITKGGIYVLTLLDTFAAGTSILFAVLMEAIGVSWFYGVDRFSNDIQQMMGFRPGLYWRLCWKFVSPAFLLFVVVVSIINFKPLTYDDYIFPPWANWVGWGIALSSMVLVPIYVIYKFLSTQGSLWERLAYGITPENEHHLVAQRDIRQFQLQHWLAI", "assay": "Off‐target panel: Norepinephrine transporter (DRX)", "assay_type": "cell-based", "protocol": "as §1"}, "Monoamine oxidase A": {"target": "Monoamine oxidase A (Homo sapiens, UniProt P21397)", "sequence (P21397 whole entry)": "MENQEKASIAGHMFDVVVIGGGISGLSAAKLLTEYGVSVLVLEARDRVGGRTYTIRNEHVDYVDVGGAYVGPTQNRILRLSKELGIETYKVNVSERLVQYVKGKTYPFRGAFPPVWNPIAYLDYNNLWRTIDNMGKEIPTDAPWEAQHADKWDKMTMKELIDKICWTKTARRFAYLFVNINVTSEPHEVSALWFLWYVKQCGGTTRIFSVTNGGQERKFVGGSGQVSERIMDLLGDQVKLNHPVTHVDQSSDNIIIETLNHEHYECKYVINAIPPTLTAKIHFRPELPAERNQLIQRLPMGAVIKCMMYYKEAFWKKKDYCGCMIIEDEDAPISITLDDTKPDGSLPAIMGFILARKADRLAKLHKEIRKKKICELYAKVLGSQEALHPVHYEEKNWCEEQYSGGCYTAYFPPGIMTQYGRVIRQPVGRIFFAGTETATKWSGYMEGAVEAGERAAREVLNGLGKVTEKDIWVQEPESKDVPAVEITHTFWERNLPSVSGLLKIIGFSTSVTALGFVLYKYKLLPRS", "assay": "Off‐target panel: Monoamine oxidase A", "assay_type": "biochemical", "conditions": "Inhibition, read-out: Mean (PXC50)", "protocol": "as §1"}, "NaV1.5": {"target": "NaV1.5 (Homo sapiens, UniProt Q14524)", "assay": "Off‐target panel: NaV1.5 (IonWorks)", "assay_type": "cell-based", "protocol": "as §1"}, "[3]": {"target": "T2, Norepinephrine transporter", "assay": "Off‐target panel: Norepinephrine transporter", "assay_type": "cell-based", "protocol": "as §1"}, "α1‐antitrypsin": {"tested_on": "α1‐antitrypsin", "assay": "Equilibrium unfolding in guanidinium hydrochloride with bis‐ANS", "assay_type": "biochemical, human", "conditions": "50 µM GSK716, guanidinium hydrochloride; ~ 1.3 M in its absence", "description": "Polymerisation of α1‐antitrypsin involves transition through a transient intermediate state known as M*, that is readily populated by the Z variant (Dafforn et al, 1999; Knaupp et al, 2010). The M* conformational ensemble appears to be a distinct species between the native state conformation and that of the final polymer. One of the hallmarks of M* is its recognition by environment‐sensitive fluorescent reporter dyes. Thermal shift assays that make use of the dye SYPRO Orange report the stability of the protein native state against heat‐induced unfolding. […] Native state stability can also be probed by equilibrium unfolding using chemical denaturants, where a peak in bis‐ANS fluorescence corresponds with a maximally populated unfolding intermediate (James & Bottomley, 1998). […] The association of GSK716 induced a marked quenching and blue‐shift of the α1‐antitrypsin intrinsic tryptophan fluorescence spectrum (Fig 4D, inset). The rate of change in fluorescence during association of 10µM GSK716 was proportional to the propensity of α1‐antitrypsin mutants to form polymers in vivo: inert (M), mild (S), moderate (Baghdad) and severe (Z) α1‐antitrypsin (Fig 4D, top and bottom). […]"}}, "data": [{"smiles": "CCC[C@@H](NC(=O)c1cccc2c1CC(=O)N2)[C@@H](O)c1cccc(F)c1C", "note": "[GSK716]", "values": [{"measurement": "EC50", "setting": "[1]", "value": "> 100", "unit": "µM"}, {"measurement": "EC50", "setting": "Adrenergic α2C", "value": "> 100", "unit": "µM"}, {"measurement": "EC50", "setting": "Muscarinic M1", "value": "> 50.1", "unit": "µM"}, {"measurement": "IC50", "setting": "Muscarinic M1", "value": "> 50.1", "unit": "µM"}, {"measurement": "IC50", "setting": "Vasopressin V1a", "value": "> 50.1", "unit": "µM"}, {"measurement": "IC50", "setting": "Acetyl- cholinesterase", "value": 100, "unit": "µM"}, {"measurement": "chromatographic logD", "setting": "ChromLogD", "value": 3.8}, {"measurement": "IC50", "setting": "Kv1.5", "value": "> 50.1", "unit": "µM"}, {"measurement": "IC50", "setting": "[2]", "value": "> 100", "unit": "µM"}, {"measurement": "IC50", "setting": "Monoamine oxidase A", "value": "> 100", "unit": "µM"}, {"measurement": "IC50", "setting": "NaV1.5", "value": 79.4, "unit": "µM"}, {"measurement": "IC50", "setting": "[3]", "value": "> 100", "unit": "µM"}, {"measurement": "denaturant concentration at peak bis‐ANS fluorescence (maximally populated unfolding intermediate)", "setting": "α1‐antitrypsin", "value": "~ 1.9 M"}]}]}
